Converted amounts (≈) assume the structure as drawn.

In one series the test system is Musca domestica. Description: Topical test on houseflies (MD). In kind it is in vivo. Particulars: for MD (LD50): houseflies, topical on thorax, kill assessed 24 and 48 h. Here is the method:
(§1) Pesticidal activity was assessed against houseflies, mustard beetles, mites and whitefly using the following methods.
Houseflies (MD) (Musca domestica)
Female flies were treated on the thorax with a one microliter drop of test compound dissolved in acetone. Two replicates of 15 flies were used at each dose rate and 6 dose rates were used per compound under test. After treatment, the flies were maintained at a temperature of 20°±1° C. and kill was assessed 24 and 48 hours after treatment. LD50 values were calculated in micrograms of test compound per fly (see Sawicki et al., Bulletin of the World Health Organisation, 35, 893 (1966) and Sawicki et al., Entomologia and Exp. Appli 10, 253, (1967).
(§2) The values given are LD50 (μg/insect) or LC50 (ppm solution of test compound) unless otherwise specified.

For another series, the system named is Tetranychus urticae. In words: Immersion test on mites (TU), susceptible strain GSS. In kind it is in vivo. Particulars: 72 h, read-out: TU (GSS) (LC50). Here is the method: as §1
Mites (TU) (Tetranychus urticae)
25 adult female mites were immersed in 35 μl of a solution of the test compound in a 1:4 acetone-water mixture for 30 seconds. The treated insects were maintained at 21°±2° C. and kill was assessed 72 hours after treatment. […] Three replicates of 25 mites each were used at each dose rate and 5 or 6 dose rates were used per compound under test. LC50 values were calculated in ppm of the solution of the test compound per insect. The test was carried out using a susceptible strain of mites (GSS) supplied by Schering, AG, Berlin.
as §2

Another series deals with Bemisia tabaci. Description: Film/vial test on whitefly (BT), susceptible strain SUD-S. It counts as in vivo. Particulars: 48 h, read-out: BT (SUD-S) (LC50). How it is done:
as §1
Whitefly (BT) (Bemisia tabaci)
Acetone solutions (0.100 ml) of the test compounds were placed in 10 ml glass vials and evaporated with rotation to deposit a film of the compound. Thirty adult whiteflies were placed inside the vial, then after 60 minutes, the treated insects were transferred onto untreated cotton leaf discs which were kept moist on a bed of agar gel. The temperature was maintained at 25° C. and mortality assessed after 48 hours. Three replicates were used at each of 5 to 7 dose levels per compound. LC50 values were calculated by using a computer software package ("Polo-PC" available from LeOra Software, Berkeley, Calif.). (See M. R. Cahill and B. Hackett in Proceedings Brighton Crop Protection Conference, 1992). The test was carried out using a susceptible strain of whitefly (SUD-S) which was collected in Sudan in 1978 from cotton.
as §2

In series [1] the test system is Myzus persicae. In words: Aphicidal activity, topical application. It counts as in vivo. To be noted: 100 ppm, 72 h. Here is the method: (§3) Activity against resistant (R) and susceptible (S) strains of aphid (Myzus persicae) and Aphis gossypiae was assessed using the following two methods.
Batches of 10-15 apterous adults were removed from stock cultures and placed on leaf discs (35 mm in diameter) cut from chinese cabbage and held on an agar bed (25 mm deep) in disposable plastic containers (30 mm high). Using a Burkhard micro-applicator aphids were dosed individually with a 0.25 μm droplet of chemical diluted to the required concentration in acetone. control insects were dosed with acetone only. Mortality and other effects were scored at 24 hour intervals up to and including 72 hour post-treatment, the end-point to which the results relate.
(§4) The test was carried out using a susceptible strain of aphids (US1L) collected in the field in East Anglia, UK and an extremely resistant strain of aphids (794Jz) (R^3 esterase, sensitive ACHE) collected from glasshouses in the UK.
(§5) The values given are % mortality corrected for control data. The control comprised the test solution without active ingredient.

In series [2] the test system is Myzus persicae. In words: Aphicidal activity, aphid-dip. In kind it is in vivo. How it is done:
as §3
(§6) Entrapment rings of fluon were painted halfway up the inside of 4 cm lengths of glass tubing (1.5 cm diameter), and squares of insect-proof gauze were attached to one end of each tube by elastic bands. Fifteen apterous adults were then gently transferred into the tubes using a sable-hair brush, and the tube sealed with a second gauze square.
(§7) Tubes containing aphids were dipped into insecticide solutions for 10 seconds, dried on blotting paper, and then inverted and tapped to cause treated aphids to fall to the unimmersed end of each tube. Handling mortality (usually zero or very slight) was scored after 1 hour, when aphids were transferred onto chinese cabbage leaf-discs (35 mm diameter) on an agar bed (25 mm in depth) in disposible plastic containers (30 mm high) and confined by applying a ring of fluon to the exposed lip of the container. Containers were stored upright, without lids, in a constant environment facility maintained at 25° C. under continuous room lighting. Mortality was assessed at 24, 48 and 72 hours. Two replicates of 15 aphids each were used at each dose rate and 5 or 6 dose rates were used per compound under test.
as §4, §5

For another series, the system named is Aphis gossypiae. In words: Aphicidal activity, aphid-dip. In kind it is in vivo. To be noted: strain 81-171B, read-out: Aphid-dip result, % kill A.G. 81-171B. Here is the method:
as §3, §6, §7, §5

In a further series the test system is Phaedon cochleariae Fab. Description: Topical test on mustard beetles (PC). In kind it is in vivo. To be noted: for PC (LD50): mustard beetles, topical, 48 h. How it is done: as §1
Mustard beetles (PC) (Phaedon cochleariae Fab)
A one microliter drop of an acetone solution of the test compound was applied ventrally to adult mustard beetles using a micro drop applicator. The treated insects were maintained for 48 hours after which time kill was assessed. Two replicates each of 20 to 25 mustard beetles were used at each dose level and 5 dose levels were treated comparably. LD50 values were calculated as for houseflies.
as §2

The next series relates to Myzus. In words: Aphicidal activity of comparative compounds (topical or dip not stated). Particulars: prior art t-butyl compound; in the tests set out above; concentration not given. In kind it is in vivo. How it is done:
as §3
Batches of 10-15 apterous adults were removed from stock cultures and placed on leaf discs (35 mm in diameter) cut from chinese cabbage and held on an agar bed (25 mm deep) in disposable plastic containers (30 mm high). Using a Burkhard micro-applicator aphids were dosed individually with a 0.25 μm droplet of chemical diluted to the required concentration in acetone. control insects were dosed with acetone only. Mortality and other effects were scored at 24 hour intervals up to and including 72 hour post-treatment, the end-point to which the results relate. […]
Tubes containing aphids were dipped into insecticide solutions for 10 seconds, dried on blotting paper, and then inverted and tapped to cause treated aphids to fall to the unimmersed end of each tube. Handling mortality (usually zero or very slight) was scored after 1 hour, when aphids were transferred onto chinese cabbage leaf-discs (35 mm diameter) on an agar bed (25 mm in depth) in disposible plastic containers (30 mm high) and confined by applying a ring of fluon to the exposed lip of the container. […] Mortality was assessed at 24, 48 and 72 hours. […]

In another series the test system is Aspergillus niger. It counts as cell-based. To be noted: A. niger.
The subject of series [3] is Pyricularia oryzae (=Magnaporthe grisea). In kind it is cell-based. To be noted: P. oryzae, 100 mg 1^-1, 7 days.
For a further series, the system named is Rhizoctonia solani. In kind it is cell-based. Particulars: R. solani.
For another series, the system named is acarids and fungi. To be noted: cited from earlier work.
For the next series, the system named is Tetranychus. To be noted: Tabelle A of EP 0300218 A1; cited from earlier work.
Setting [4] is: susceptible strain USIL, read-out: Topical aphid results, % kill M.P. USIL.
Where [5] appears, read: susceptible strain USIL, read-out: Aphid-dip result, % kill M.P. USIL.
Setting [6] is: prior art t-butyl compound, tested by the present inventors.
Where [7] appears, read: resistant strain 794JZ, read-out: Aphid-dip result, % kill M.P. 794JZ.
The mark [8] stands for this setting: 100 mg 1^-1, 4 days at 20-25° C.

For `C[Si](C)(C)CCCCCCCC1=C(O)C(=O)c2ccccc2C1=O` [Example 10], the “MD (LD50)” value with Musca domestica was determined as 1.7 μg/insect. The median lethal concentration (LC50) (in general, the concentration that kills 50% of the test population) with Tetranychus urticae came to 0.31 µg/mL (≈ 0.9 µM); with Bemisia tabaci, 8.2 µg/mL (≈ 23.8 µM). Moreover, the mortality at 100 ppm with Myzus persicae [1] (setting [4]), in the series with Myzus persicae [2] (setting [5]) and with Aphis gossypiae was 100% throughout.

Regarding `CC(C)(C)C1CCC(C2=C(O)C(=O)c3ccccc3C2=O)CC1` (centres unmarked) [t-butyl compoud, reference compound], the “LD50 against Musca” value with Musca domestica (setting [6]) was 16 μg/insect. For the same compound, the “LD50 against Phaedon” value in the series with Phaedon cochleariae Fab (setting [6]) stood at 0.53 μg/insect. In addition, the “kill against Myzus” value with Myzus came to 19%.

For the compound `C[Si](C)(C)CCCCCC1=C(O)C(=O)c2ccccc2C1=O` [Example 3, 2-hydroxy-3(5'-trimethylsilylpentyl)-1,4-naphthoquinone], the “MD (LD50)” value in the series on Musca domestica is given as 1.3 μg/insect. Further, the figures for the LC50 in the series with Tetranychus urticae and in the series on Bemisia tabaci were 2.8 µg/mL (≈ 8.85 µM) and 6.8 µg/mL (≈ 21.5 µM), respectively. The mortality at 100 ppm with Myzus persicae [1] (setting [4]), in the series on Myzus persicae [2] (setting [5]) and in the series on Aphis gossypiae was 100% each time.

For the compound `C[Si](C)(C)CCC1=C(O)C(=O)c2ccccc2C1=O` [Example 2, 2-hydroxy-3-(2'-trimethylsilylethyl)-1,4-naphthoquinone], in the series with Musca domestica, the “MD (LD50)” value is reported as 0.69 μg/insect. For the same compound, in the series with Phaedon cochleariae Fab, the “PC (LD50)” value is recorded as 0.45 μg/insect. Further, the median lethal concentration (LC50) was determined as 38 µg/mL (≈ 138 µM) with Tetranychus urticae and 2.6 µg/mL (≈ 9.48 µM) in the series with Bemisia tabaci. The mortality at 100 ppm in the series on Myzus persicae [1] (setting [4]) amounted to 45%; with Myzus persicae [2] (setting [7]) it was 54%; with Myzus persicae [2] (setting [5]), 77%; in the series on Aphis gossypiae, 63%. The “Activity at 100 mg 1^-1 (% inhibition of growth in colony diameter)” value in the series on Aspergillus niger (setting [8]) came to 18%; in series [3] it was 67%; in the series on Rhizoctonia solani (setting [8]), 35%.

For `CCCN(CCOc1c(Cl)cc(Cl)cc1Cl)C(=O)n1ccnc1` [Prochloraz, prochloraz, reference compound], the “Activity at 1 mg 1^-1 (% inhibition of growth in colony diameter)” value in the series with Aspergillus niger (1 mg 1^-1) came to 97.8%.

Regarding `C[Si](C)(C)CCCCCCCCCC1=C(O)C(=O)c2ccccc2C1=O` [Example 12, 2-hydroxy-3-(9-trimethylsilylnonyl)-1,4-naphthoquinone], the “MD (LD50)” value with Musca domestica is 2.8 μg/insect. Also, the “PC (LD50)” value in the series on Phaedon cochleariae Fab was 0.13 μg/insect. In addition, the LC50 amounted to 0.9 µg/mL (≈ 2.42 µM) in the series with Tetranychus urticae and 8.6 µg/mL (≈ 23.1 µM) in the series on Bemisia tabaci. The mortality at 100 ppm in the series on Myzus persicae [1] (setting [4]) stood at 89%; with Myzus persicae [2] (setting [7]) it was 61%; in the series on Myzus persicae [2] (setting [5]) it was 100%; in the series on Aphis gossypiae it was 93%.

In the case of `C[Si](C)(C)CCCCCCCCC1=C(O)C(=O)c2ccccc2C1=O` [Example 11], the “MD (LD50)” value with Musca domestica is reported as 2.3 μg/insect. The results for the median lethal concentration (LC50) with Tetranychus urticae and in the series with Bemisia tabaci were 0.51 µg/mL (≈ 1.42 µM) and 14.6 µg/mL (≈ 40.7 µM), respectively. In addition, the mortality at 100 ppm in the series with Myzus persicae [1] (resistant strain 794JZ, read-out: Topical aphid results, % kill M.P. 794JZ) was determined as 95%; with Myzus persicae [1] (setting [4]) it was 100%; in the series with Myzus persicae [2] (setting [5]), 100%; in the series on Aphis gossypiae, 100%.

In the case of `C[Si](C)(C)C1CCC(C2=C(O)C(=O)c3ccccc3C2=O)CC1` (centres unmarked) [compound of Example 5 (DE 3801743 A1)], the “pesticidal activity relative to other disclosed compounds” value in the series with acarids and fungi (DE 3801743 A1) is “not the most pesticidally active compound”. Moreover, in the series with acarids and fungi (data in DE 3801743 A1), the “acaricidal and fungicidal activity” value was “some acaricidal and fungicidal activity”. Also, the “activity against Tetranychus relative to tertiary butyl compound” value with Tetranychus is on record as “less than the corresponding tertiary butyl compound”.

For `COC(=O)Nc1nc2ccccc2[nH]1` [Carbendazim, carbendazim], in the series on Rhizoctonia solani (1 mg 1^-1), the “Activity at 1 mg 1^-1 (% inhibition of growth in colony diameter)” value came to 3.3%. Also, the “Activity at 5 mg 1^-1 (% inhibition of growth in colony diameter)” value in the series on Rhizoctonia solani (5 mg 1^-1) worked out at 82.4%.

These data come from patent US6162799A, “Pesticidal compounds” (BTG International Limited, priority 1995, dated 2000).
